Laboratory results published in patent US8809331B2 (Genentech, Inc., priority 2011, dated 2014).

biological target: T1, LRRK2 (Homo sapiens, UniProt Q5S007, G2019S); assay: In Vitro LRRK2 LabChip Assay (LRRK2 Ki); format: biochemical; details: Table 5 compounds (formula I)
T1 construct: purchased Invitrogen PV4882
T1 sequence (Q5S007 whole entry G2019S): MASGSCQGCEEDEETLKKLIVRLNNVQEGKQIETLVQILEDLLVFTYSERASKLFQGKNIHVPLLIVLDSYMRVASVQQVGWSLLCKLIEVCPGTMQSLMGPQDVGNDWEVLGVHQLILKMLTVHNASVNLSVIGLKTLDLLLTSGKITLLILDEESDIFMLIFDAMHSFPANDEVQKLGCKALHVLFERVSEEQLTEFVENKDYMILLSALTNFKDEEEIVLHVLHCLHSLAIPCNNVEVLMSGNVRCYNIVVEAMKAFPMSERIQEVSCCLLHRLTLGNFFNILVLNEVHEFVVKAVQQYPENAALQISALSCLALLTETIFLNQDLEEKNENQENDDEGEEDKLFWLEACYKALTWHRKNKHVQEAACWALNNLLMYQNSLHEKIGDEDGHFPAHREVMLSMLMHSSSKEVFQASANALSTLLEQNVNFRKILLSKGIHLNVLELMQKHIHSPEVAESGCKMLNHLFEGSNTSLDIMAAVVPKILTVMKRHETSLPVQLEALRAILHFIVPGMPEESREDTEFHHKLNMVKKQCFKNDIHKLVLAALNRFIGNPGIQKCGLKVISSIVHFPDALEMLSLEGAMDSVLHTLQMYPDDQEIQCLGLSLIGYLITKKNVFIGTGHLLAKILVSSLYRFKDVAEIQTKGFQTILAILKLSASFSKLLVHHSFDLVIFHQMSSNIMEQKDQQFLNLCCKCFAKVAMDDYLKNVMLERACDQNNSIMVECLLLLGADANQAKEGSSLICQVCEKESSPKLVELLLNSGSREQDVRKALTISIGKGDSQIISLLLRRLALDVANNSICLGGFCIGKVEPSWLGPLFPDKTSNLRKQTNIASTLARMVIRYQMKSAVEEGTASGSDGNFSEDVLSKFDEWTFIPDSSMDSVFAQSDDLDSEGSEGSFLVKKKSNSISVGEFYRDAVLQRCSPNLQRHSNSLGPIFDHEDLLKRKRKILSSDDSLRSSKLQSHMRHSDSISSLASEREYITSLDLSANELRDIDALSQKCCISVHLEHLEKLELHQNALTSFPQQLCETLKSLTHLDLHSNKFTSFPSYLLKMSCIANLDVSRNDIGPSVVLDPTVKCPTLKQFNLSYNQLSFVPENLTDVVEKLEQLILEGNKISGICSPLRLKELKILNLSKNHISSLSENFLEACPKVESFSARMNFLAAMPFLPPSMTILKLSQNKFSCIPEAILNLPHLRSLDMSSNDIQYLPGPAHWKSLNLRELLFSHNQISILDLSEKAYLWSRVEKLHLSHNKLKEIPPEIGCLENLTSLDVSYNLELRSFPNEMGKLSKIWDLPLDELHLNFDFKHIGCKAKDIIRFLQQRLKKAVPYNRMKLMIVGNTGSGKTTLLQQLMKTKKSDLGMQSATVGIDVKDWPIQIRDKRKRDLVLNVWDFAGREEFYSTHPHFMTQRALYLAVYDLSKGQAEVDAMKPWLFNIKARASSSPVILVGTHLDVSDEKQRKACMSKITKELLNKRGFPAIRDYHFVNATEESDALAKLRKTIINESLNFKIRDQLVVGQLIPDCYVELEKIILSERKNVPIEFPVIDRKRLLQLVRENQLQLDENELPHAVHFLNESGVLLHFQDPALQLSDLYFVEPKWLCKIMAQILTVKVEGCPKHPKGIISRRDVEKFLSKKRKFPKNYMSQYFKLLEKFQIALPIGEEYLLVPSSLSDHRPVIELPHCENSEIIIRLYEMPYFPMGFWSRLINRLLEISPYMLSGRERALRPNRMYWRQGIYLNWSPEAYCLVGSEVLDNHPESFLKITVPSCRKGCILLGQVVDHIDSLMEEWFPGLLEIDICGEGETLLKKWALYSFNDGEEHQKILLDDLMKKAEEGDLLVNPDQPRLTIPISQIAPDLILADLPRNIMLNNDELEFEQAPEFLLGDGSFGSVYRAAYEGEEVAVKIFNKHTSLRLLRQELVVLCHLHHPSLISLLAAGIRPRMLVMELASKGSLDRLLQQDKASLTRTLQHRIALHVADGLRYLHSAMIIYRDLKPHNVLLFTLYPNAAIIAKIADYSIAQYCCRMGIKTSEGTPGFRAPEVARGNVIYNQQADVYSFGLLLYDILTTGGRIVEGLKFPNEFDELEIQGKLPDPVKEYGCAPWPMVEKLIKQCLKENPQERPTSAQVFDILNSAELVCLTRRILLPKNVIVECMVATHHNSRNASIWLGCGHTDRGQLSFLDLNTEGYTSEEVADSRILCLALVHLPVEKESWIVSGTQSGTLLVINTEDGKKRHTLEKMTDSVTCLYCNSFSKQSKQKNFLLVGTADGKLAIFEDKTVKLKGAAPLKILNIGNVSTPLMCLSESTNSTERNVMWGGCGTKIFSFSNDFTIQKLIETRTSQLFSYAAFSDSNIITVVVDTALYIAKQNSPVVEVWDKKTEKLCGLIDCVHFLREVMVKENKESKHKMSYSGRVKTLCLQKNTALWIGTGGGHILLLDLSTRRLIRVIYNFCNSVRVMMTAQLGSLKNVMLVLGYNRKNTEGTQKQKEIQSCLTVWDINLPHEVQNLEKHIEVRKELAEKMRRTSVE

Row | Ki [nM] | Compound
1 | 2.06 | CNc1nc(Nc2cc(OC)c(C(=O)N3CCOCC3)c(OC)c2F)ncc1C(F)(F)F [Compound 122, [3-Fluoro-2,6-dimethoxy-4-(4-methylamino-5-trifluoromethyl-pyrimidin-2-ylamino)-phenyl]-morpholin-4-yl-methanone]
2 | 0.31 | [2H]C1([2H])C(Nc2nc(Nc3cc(F)c(C(=O)N4CCOCC4)cc3OC)ncc2C(F)(F)F)C1([2H])[2H] [Compound 123, (4-(4-(2,3-tetradeutero-cyclopropylamino)-5-(trifluoromethyl)pyrimidin-2-ylamino)-2-fluoro-5-methoxyphenyl)(morpholino)methanone]
3 | 4.3 | CNc1nc(Nc2cc(OC(F)(F)F)c(C(=O)N3CCOCC3)cc2OC)ncc1C(F)(F)F [Compound 124, [5-Methoxy-4-(4-methylamino-5-trifluoromethyl-pyrimidin-2-ylamino)-2-trifluoromethoxy-phenyl]-morpholin-4-yl-methanone]
4 | 0.577 | CCNc1nc(Nc2cc(OC)c(C(=O)N3CCOCC3)cc2OC)ncc1C(F)(F)F [Compound 125, [4-(4-Ethylamino-5-trifluoromethyl-pyrimidin-2-ylamino)-2,5-dimethoxy-phenyl]-morpholin-4-yl-methanone]
5 | 6.79 | CNc1nc(Nc2cc(Cl)c(C(=O)N3CCOCC3)cc2C)ncc1C(F)(F)F [Compound 126, [2-Chloro-5-methyl-4-(4-methylamino-5-trifluoromethyl-pyrimidin-2-ylamino)-phenyl]-morpholin-4-yl-methanone]
6 | 0.31 | COc1cc(C(=O)N2CCOCC2)c(C)cc1Nc1ncc(C(F)(F)F)c(NC2CCC2)n1 [Compound 129, [4-(4-Cyclobutylamino-5-trifluoromethyl-pyrimidin-2-ylamino)-5-methoxy-2-methyl-phenyl]-morpholin-4-yl-methanone]
7 | 4.74 | CNc1nc(Nc2cc(C)c(C(=O)N3CCOCC3)cc2C)ncc1C(F)(F)F [Compound 130, [2,5-Dimethyl-4-(4-methylamino-5-trifluoromethyl-pyrimidin-2-ylamino)-phenyl]-morpholin-4-yl-methanone]

Second part, the compound before the results:

Row | Compound | Ki [nM]
8 | CNc1nc(Nc2cc(C)c(C(=O)N3CCOCC3)cc2OCC2CC2)ncc1C(F)(F)F [Compound 109, [5-Cyclopropylmethoxy-2-methyl-4-(4-methylamino-5-trifluoromethyl-pyrimidin-2-ylamino)-phenyl]-morpholin-4-yl-methanone] | 1.38
9 | CNc1nc(Nc2cc(OC)c(C(=O)N3CCCCC3)cc2OCF)ncc1C(F)(F)F [Compound 110, [5-Fluoromethoxy-2-methoxy-4-(4-methylamino-5-trifluoromethyl-pyrimidin-2-ylamino)-phenyl]-piperidin-1-yl-methanone] | 1.64
10 | CCNc1nc(Nc2cc(OCF)c(C(=O)N3CCCC3)cc2Cl)ncc1C(F)(F)F [Compound 111, [5-Chloro-4-(4-ethylamino-5-trifluoromethyl-pyrimidin-2-ylamino)-2-fluoromethoxy-phenyl]-pyrrolidin-1-yl-methanone] | 1.68
11 | COc1cc(Nc2ncc(C(F)(F)F)c(NC3CCC3)n2)c(F)cc1C(=O)N1CCOCC1 [Compound 112, [4-(4-Cyclobutylamino-5-trifluoromethyl-pyrimidin-2-ylamino)-5-fluoro-2-methoxy-phenyl]-morpholin-4-yl-methanone] | 0.353
12 | COc1cc(Nc2ncc(C(F)(F)F)c(NC3CCC3)n2)c(Cl)cc1C(=O)N1CCOCC1 [Compound 113, [5-Chloro-4-(4-cyclobutylamino-5-trifluoromethyl-pyrimidin-2-ylamino)-2-methoxy-phenyl]-morpholin-4-yl-methanone] | 0.326
13 | CCNc1nc(Nc2cc(F)c(C(=O)NC3(CO)CC3)cc2OC)ncc1C(F)(F)F [Compound 114, 4-(4-Ethylamino-5-trifluoromethyl-pyrimidin-2-ylamino)-2-fluoro-N-(1-hydroxymethyl-cyclopropyl)-5-methoxy-benzamide] | 0.559
14 | CCNc1nc(Nc2cc(F)c(C(=O)NCC3(O)CC3)cc2OC)ncc1C(F)(F)F [Compound 115, 4-(4-Ethylamino-5-trifluoromethyl-pyrimidin-2-ylamino)-2-fluoro-N-(1-hydroxy-cyclopropylmethyl)-5-methoxy-benzamide] | 0.31
15 | CNc1nc(Nc2cc(C)c(C(=O)NCC(C)(C)O)cc2OC)ncc1C(F)(F)F [Compound 116, N-(2-Hydroxy-2-methyl-propyl)-5-methoxy-2-methyl-4-(4-methylamino-5-trifluoromethyl-pyrimidin-2-ylamino)-benzamide] | 1.19
16 | CCNc1nc(Nc2cc(OC)c(C(=O)N3CC[C@H](F)C3)cc2Cl)ncc1C#N [Compound 117, 2-[2-Chloro-4-((S)-3-fluoro-pyrrolidine-1-carbonyl)-5-methoxy-phenylamino]-4-ethylamino-pyrimidine-5-carbonitrile] | 12.7
17 | CCNc1nc(Nc2cc(F)c(C(=O)N3CCOCC3)cc2C)ncc1C(F)(F)F [Compound 118, [4-(4-Ethylamino-5-trifluoromethyl-pyrimidin-2-ylamino)-2-fluoro-5-methyl-phenyl]-morpholin-4-yl-methanone] | 2.76
18 | COc1nc(Nc2cc(C)c(C(=O)N3CCCC3)cc2OCF)ncc1Cl [Compound 119, [4-(5-Chloro-4-methoxy-pyrimidin-2-ylamino)-5-fluoromethoxy-2-methyl-phenyl]-pyrrolidin-1-yl-methanone] | 11.2
19 | CNc1nc(Nc2cc(OC)c(C(=O)N(C)C)cc2OCF)ncc1C(F)(F)F [Compound 120, 5-Fluoromethoxy-2-methoxy-N,N-dimethyl-4-(4-methylamino-5-trifluoromethyl-pyrimidin-2-ylamino)-benzamide] | 4.42
20 | CCNc1nc(Nc2cc(OCF)c(C(=O)N3CCCC3)cc2F)ncc1C(F)(F)F [Compound 121, [4-(4-Ethylamino-5-trifluoromethyl-pyrimidin-2-ylamino)-5-fluoro-2-fluoromethoxy-phenyl]-pyrrolidin-1-yl-methanone] | 3.43

same assay, conditions: Table 6 compounds (formula II/III, fused ring)

Row | Ki [nM] | Compound
21 | 3.17 | [5-Chloro-2-hydroxy-4-(4-methylamino-5-trifluoromethyl-pyrimidin-2-ylamino)-phenyl]-morpholin-4-yl-methanone [Compound 10]
